Measured values from patent US7384911B2, “Peptides having antimicrobial properties and compositions containing them, notably for the preservation of foodstuffs” (priority 2002, dated 2008).
Where two headings read alike, the source gives them in different places. Residues, ends and D or L forms follow the SMILES beside them.

Columns and labels:
B. megaterium = experiment: Bactericidal or bacteriostatic effect, spreading on Petri dishes and counting colonies; format: cell-based; conditions: colonies counted after 24 h of incubation, Yes/No
Description: (§1) The bactericidal or bacteriostatic effect of the peptide was determined by spreading on Petri dishes and counting the colonies present after 24 h of incubation.

Bacillus subtilis = experiment: as above; format: cell-based; conditions: colonies counted after 24 h of incubation, Yes/No
Description: as §1

Escherichia coli SBS 363 = experiment: as above; format: cell-based; conditions: colonies counted after 24 h of incubation, Yes/No
Description: as §1

Klebsiella pneumoniae = experiment: as above; format: cell-based; conditions: colonies counted after 24 h of incubation, Yes/No
Description: as §1

Micrococcus luteus = experiment: as above; format: cell-based; conditions: colonies counted after 24 h of incubation, Yes/No
Description: as §1

Nocardia asteroides = experiment: as above; format: cell-based; conditions: colonies counted after 24 h of incubation, Yes/No
Description: as §1

[1] = system: Pseudomonas aeruginosa ATCC 82118; experiment: as above; format: cell-based; conditions: colonies counted after 24 h of incubation, Yes/No
Description: as §1

S. haemolyticus = experiment: as above; format: cell-based; conditions: colonies counted after 24 h of incubation, Yes/No
Description: as §1

Salmonella typhimurium = experiment: as above; format: cell-based; conditions: colonies counted after 24 h of incubation, Yes/No
Description: as §1

Staphylococcus aureus = experiment: as above; format: cell-based; conditions: colonies counted after 24 h of incubation, Yes/No
Description: as §1

[2] = system: V. anguillarum ATCC 19264; experiment: as above; format: cell-based; conditions: colonies counted after 24 h of incubation, Yes/No
Description: as §1

[3] = system: Vibrio metshnikovii NCTC 8483; experiment: as above; format: cell-based; conditions: colonies counted after 24 h of incubation, Yes/No
Description: as §1

B. cereus ATCC 11778 = experiment: as above; format: cell-based, Bacillus cereus; conditions: colonies counted after 24 h of incubation, Yes/No
Description: as §1

S. saprophyticus = experiment: as above; format: cell-based, Staphylococcus saprophyticus; conditions: colonies counted after 24 h of incubation, Yes/No
Description: as §1

E. coli 1106 = experiment: as above; format: cell-based, Escherichia coli; conditions: colonies counted after 24 h of incubation, Yes/No
Description: as §1

Escherichia coli 1106 = format: cell-based
Description: (§2) Strains of microorganisms capable of growing at such pH values were selected in advance: these were Pseudomonas aeruginosa and Escherichia coli 1106 (Gram-negative bacteria). The tests of antimicrobial activity were performed in liquid medium in microtitration plates (for the detailed protocol see example 2.4 as well as Hétru and Bulet, 1997). The pH of the liquid medium used was adjusted with hydrochloric acid for each test.
(§3) Two strains of Gram-negative bacteria (Pseudomonas aeruginosa and Escherichia coli 1106) capable of growing in the range of pH values to be tested were selected. The range of pH values tested corresponded to the pH variations observed in the well preserved stomach content of the incubating king penguin (Thouzeau et al., 2003).

Pseudomonas aeruginosa = format: cell-based
Description: as §2, §3

Aspergillus fumigatus = experiment: Effect on growth of Aspergillus fumigatus, observation with electronic microscope; format: cell-based; conditions: incubation with 6 μM of spheniscin-2
Description: (FIG. 9A) Control growth: the aspergillar heads terminated by the spores are clearly visible (X 400). […] The effect of spheniscin-2 on A. fumigatus is consequently not of the direct fungicidal type on the spores but is manifested by a halt of growth by inhibition of the reproduction of the fungus because there is no longer formation of aspergillar heads, structures implicated in the reproduction/proliferation process of this fungus.

Which “Bactericidal effect of spheniscin-2” value (B. megaterium) does the source give for `CC[C@H](C)[C@@H]1NC(=O)[C@@H]2CCCN2C(=O)[C@H]([C@@H](C)CC)NC(=O)[C@H](CO)NC(=O)[C@@H]2CCCN2C(=O)[C@H](Cc2ccccc2)NC(=O)[C@H](CCCNC(=N)N)NC(=O)[C@@H]2CSSC[C@@H](C(=O)N[C@@H](CCCNC(=N)N)C(=O)N[C@@H](CCCNC(=N)N)C(=O)N[C@H](C(=O)N[C@@H](Cc3c[nH]c4ccccc34)C(=O)O)C(C)C)NC(=O)[C@@H]3CSSC[C@H](NC(=O)[C@H](CC(C)C)NC(=O)CNC(=O)[C@H](Cc4ccccc4)NC(=O)[C@@H](N)CO)C(=O)N[C@@H](CCCNC(=N)N)C(=O)N[C@@H](CC(C)C)C(=O)N[C@@H](CCCNC(=N)N)C(=O)N[C@@H](CCCNC(=N)N)C(=O)NCC(=O)N[C@@H](Cc4ccccc4)C(=O)N[C@@H](CSSC[C@H](NC(=O)[C@H](CCCNC(=N)N)NC(=O)CNC1=O)C(=O)N[C@@H](CO)C(=O)N[C@@H](CCCNC(=N)N)C(=O)N[C@@H](Cc1ccccc1)C(=O)N[C@@H](C(C)C)C(=O)N[C@@H](CCC(N)=O)C(=O)N3)C(=O)N[C@@H](C)C(=O)N[C@@H](CCCNC(=N)N)C(=O)NCC(=O)N[C@@H](CCCNC(=N)N)C(=O)N2` [spheniscin-2] (HELM PEPTIDE1{S.F.G.L.C.R.L.R.R.G.F.C.A.R.G.R.C.R.F.P.S.I.P.I.G.R.C.S.R.F.V.Q.C.C.R.R.V.W}$PEPTIDE1,PEPTIDE1,5:R3-33:R3|PEPTIDE1,PEPTIDE1,12:R3-27:R3|PEPTIDE1,PEPTIDE1,17:R3-34:R3$$$V2.0; N-terminus and C-terminus assumed) here?
Its value is “Yes”.

And the “Bactericidal effect of spheniscin-2” value (Bacillus subtilis)?
Its value is “Yes”.

What about the “Bactericidal effect of spheniscin-2” value (Escherichia coli SBS 363) of the same molecule?
The value was “No”.

What about the “Bactericidal effect of spheniscin-2” value (Klebsiella pneumoniae) of the same molecule?
The value was “No”.

What about the “Bactericidal effect of spheniscin-2” value (Micrococcus luteus) of the same molecule?
The value was “Yes”.

What about the “Bactericidal effect of spheniscin-2” value (Nocardia asteroides) of the same molecule?
Its value is “Yes”.

And the “Bactericidal effect of spheniscin-2” value [1]?
The value was “No”.

And the “Bactericidal effect of spheniscin-2” value (S. haemolyticus)?
The value was “Yes”.

And the “Bactericidal effect of spheniscin-2” value (Salmonella typhimurium)?
Its value is “No”.

And the “Bactericidal effect of spheniscin-2” value (Staphylococcus aureus)?
The value was “Yes”.

And the “Bactericidal effect of spheniscin-2” value [2]?
Its value is “No”.

And the “Bactericidal effect of spheniscin-2” value [3]?
Its value is “Yes”.

What about the “Bactericidal effect of spheniscin-2” value (B. cereus ATCC 11778) of the same molecule?
The value was “Yes”.

And the “Bactericidal effect of spheniscin-2” value (S. saprophyticus)?
Its value is “No”.

What about the “Bactericidal effect of spheniscin-2” value (E. coli 1106) of the same molecule?
Its value is “Yes”.

And the “MIC (μM) after 48 h of incubation” value (Escherichia coli 1106; pH 4.2)?
Its value is 6 to 12 µM.

What about the “MIC (μM) after 48 h of incubation” value (Escherichia coli 1106; pH 5.2) of the same molecule?
Its value is 25 to 50 µM.

What about the “MIC (μM) after 48 h of incubation” value (Escherichia coli 1106; pH 6.1) of the same molecule?
Its value is 6 to 12 µM.

And the “MIC (μM) after 48 h of incubation” value (Escherichia coli 1106; pH 7.2)?
The value was 1.5 to 3 µM.

And the “MIC (μM) after 48 h of incubation” value (Pseudomonas aeruginosa; pH 4.2)?
The value was greater than 100 µM.

And the “MIC (μM) after 48 h of incubation” value (Pseudomonas aeruginosa; pH 7.2)?
Its value is 6 to 12 µM.

And the “Effect on the growth of Aspergillus fumigatus (FIG. 9B)” value (Aspergillus fumigatus)?
The value was “disappearance of the aspergillar heads”.
